This is an account of results in US20210338782A1, “STORAGE STABLE SOMATOSTATIN-DOPAMINE CHIMERIC COMPOUNDS AND SALT FORMS THEREOF” (Cydan II, Inc., priority 2019, published 2021).

A short description of one data set: FIG. 6B. The text has this:
Table printed on a drawing sheet, FIG. 6B
Footnotes: *N=2 with Animal 2 excluded.
First reader's note: Each Cmax and AUC0-t cell holds the value together with its SD; the sheet prints no units for Cmax or AUC0-t.

A short description of data set [1]: Time and temperature stability of lyophilized TBR-760 salts in sealed glass vials (visual appearance, HPLC). Type of data set: physicochemical. As to conditions: for salt form degraded: sealed glass vials, HPLC. As for the experimental part: Lyophilized TBR-760 salts prepared as described above were assessed for stability by visual appearance and HPLC following initial production of the salt and following incubation of the salt at 20° C., 40° C., and 60° C. for 2, 4, and 8 weeks in sealed, glass vials. Changes in visual appearance of the salt were noted by evaluating the color of the substance following each incubation condition. Purity of the salt following each incubation condition was evaluated by HPLC. The number and quantity of degradation products were determined according to the number of absorbance peaks that resulted at different retention times and the size of the peaks.

A short description of data set [2]: Solid state (thermolytic) stability of TBR-760 salt forms, open container, UPLC peak purity and appearance. The class given is physicochemical. The procedure:
(§1) Each TBR-760 salt was further evaluated for thermolytic stability over time by setting up three different exposure conditions (25° C. at 60% relative humidity (RH); 40° C. at 75% RH; or 60° C. with open and closed container systems (open dish/closed dish). Approximately 50 mg of each salt form was weighed in a nitrogen-flushed glove box for use in the studies. All samples were stored at −20° C. in a good laboratory practice (GLP) freezer both before and after exposure to the indicated conditions.
(§2) The stability of each salt form was assessed by monitoring the post-exposure drug peak purity and by evaluating the post-exposure visual appearance of the salt. The samples were removed from the exposure conditions and allowed to equilibrate to ambient conditions for 15-20 mins. An appropriate amount of each sample was weighed for analysis and dissolved in diluent (deionized water containing 0.1% TFA) to obtain a stock concentration of 1 mg/mL. The stock solution was then diluted to 0.125 mg/mL in an HPLC vial using diluent and the samples were run on a Waters Acquity UPLC system using the parameters shown in Table 4.

A short description of data set [3]: Photostability of alternative salt forms of lanreotide and TBR-760. The class given is physicochemical. Particulars: 1.2 million lux hours visible light or 200 watt hours/square meter UV light, versus control. The text has this: (§3) In order to evaluate the light sensitivity and stability of TBR-760 chimeric peptide salts, all five salt forms were exposed to ultraviolet (UV) and visible light according to International Council for Harmonisation of Technical Requirements for Pharmaceuticals for Human Use (ICH) guideline Q1B for photostability testing. In brief, a Caron 6540-1 photostability chamber unit with separate UV and light chambers was used for the studies. Visible light exposure was 1.2 million lux hours and UV exposure was 200 watt hours/square meter.
Photostability of lanreotide acetate, lanreotide bromide, lanreotide chloride, TBR-760 acetate, TBR-760 bromide and TBR760 chloride was tested according to the methods of Example 7. Four samples were prepared for each salt form: one control for each of the UV and visible light exposure conditions (controls isolated from light) and one sample for exposure to each of the UV and visible light conditions. For each sample, 2-5 mg of the salt was weighed into 3 mL clear serum vials and stoppered. Vials containing control samples were wrapped in aluminum foil.
Following exposure to visible and UV light, all lanreotide and TBR-760 salts were analyzed by UPLC as described in Example 7.

The nature of data set [4]: Thermostability of alternative salt forms of lanreotide and TBR-760 (UPLC). The class given is physicochemical. The procedure:
as §1, §2
We conducted thermostability studies of lanreotide acetate substantially as described in Example 6. These experiments confirmed that lanreotide acetate is […] when exposed to increasing temperature and humidity conditions over time (FIG. 45). […] (FIG. 45). This degree of thermal and humidity instability is disfavored for a pharmaceutical agent, particularly one intended for patient self-administration at home.
To determine whether a thermostable salt form of TBR-760 could be manufactured, a salt exchange was performed as described in Example 1 to generate bromide and chloride salts of TBR-760. Lanreotide bromide and lanreotide chloride salts were also generated and assessed for thermostability to evaluate the effect of the salt form on compound stability and to compare stability of lanreotide and TBR-760 of each salt.
UPLC assays performed as described in Example 6 were further used to determine the number of degradants—and thus the number of impurities—in each sample. Results showing the purity assessment of each sample following thermostability studies are shown in FIGS. 48A-48B (lanreotide and TBR-760 acetate salts), 49A-49B (lanreotide and TBR-760 bromide salts), and 50A-50B (lanreotide and TBR-760 chloride salts).

Data set [5] is described as follows: Photostability of TBR-760 salt forms (ICH Q1B, visible and UV light), appearance and UPLC purity. Type of data set: physicochemical.
Excerpt: as §3
Samples were placed in clear, sealed vials and stored in the appropriate chamber alongside dark controls in amber colored vials wrapped in aluminum foil. Control samples were stored in sealed amber vials at −20° C. The appearance of exposed samples was examined visually before being analyzed via UPLC.

A short description of data set [6]: Thermogravimetric analysis (TGA) of TBR-760 salt forms. The class given is physicochemical. As to conditions: between 110° C. and 200° C. The procedure:
Thermogravimetric analyses (TGA) were performed on all TBR-760 salt forms to evaluate thermal stability of each salt form. Studies were performed using a TGA-Q500 thermogravimetric analyzer (TA Instruments). The weight of each compound was measured while the temperature was increased at a ramp rate of 5.0° C. per minute from 25 to 400° C. […] The weight loss may be indicative of loss of adsorbed moisture, entrained solvent or volatile impurities. Decomposition of the compound appears to start at about 234° C. (sulfate salt), 245° C. (chloride salt), 252° C. (tosylate salt), and 255° C. (mesylate salt). For the acetate salt, a further ˜5% loss of weight between 110° C. and 200° C. was observed, indicating loss of volatile acetate ions over that temperature range (FIG. 8).

[7] abbreviates: 25° C. at 60% RH, open container.
Setting [8] is: 40° C. at 75% RH, open container.
Where [9] appears, read: UPLC peak purity, 25° C. at 60% RH, open container.
The mark [10] stands for this setting: UPLC peak purity, 40° C. at 75% RH, open container.
[11] abbreviates: UPLC peak purity, 60° C., open dish.

Where a name gives a salt, the structure may show the parent alone.

`CCCN1C[C@H](CSCC(=O)NCCCC[C@@H](NC(=O)CSC[C@@H]2C[C@@H]3c4cccc5[nH]cc(c45)C[C@H]3N(CCC)C2)C(=O)N[C@H]2CSSC[C@@H](C(=O)N[C@H](C(N)=O)[C@@H](C)O)NC(=O)[C@H](CC)NC(=O)[C@H](CCCCN)NC(=O)[C@@H](Cc3c[nH]c4ccccc34)NC(=O)[C@H](Cc3ccc(O)cc3)NC2=O)C[C@@H]2c3cccc4[nH]cc(c34)C[C@H]21` [TBR-760 Acetate*]: the “Tmax (median in hr)” value in the data set “FIG. 6B” stood at 24 h.
For the molecule `CCCN1C[C@H](CSCC(=O)NCCCC[C@@H](NC(=O)CSC[C@@H]2C[C@@H]3c4cccc5[nH]cc(c45)C[C@H]3N(CCC)C2)C(=O)N[C@H]2CSSC[C@@H](C(=O)N[C@H](C(N)=O)[C@@H](C)O)NC(=O)[C@H](CC)NC(=O)[C@H](CCCCN)NC(=O)[C@@H](Cc3c[nH]c4ccccc34)NC(=O)[C@H](Cc3ccc(O)cc3)NC2=O)C[C@@H]2c3cccc4[nH]cc(c34)C[C@H]21` [TBR-760 Mesylate], in “FIG. 6B”, the “Tmax (median in hr)” value was determined as 30 h.
Regarding `CCCN1C[C@H](CSCC(=O)NCCCC[C@@H](NC(=O)CSC[C@@H]2C[C@@H]3c4cccc5[nH]cc(c45)C[C@H]3N(CCC)C2)C(=O)N[C@H]2CSSC[C@@H](C(=O)N[C@H](C(N)=O)[C@@H](C)O)NC(=O)[C@H](CC)NC(=O)[C@H](CCCCN)NC(=O)[C@@H](Cc3c[nH]c4ccccc34)NC(=O)[C@H](Cc3ccc(O)cc3)NC2=O)C[C@@H]2c3cccc4[nH]cc(c34)C[C@H]21` [TBR-760 Tosylate], the “Tmax (median in hr)” value in “FIG. 6B” was found to be 30 h.
Consider `CCCN1C[C@H](CSCC(=O)NCCCC[C@@H](NC(=O)CSC[C@@H]2C[C@@H]3c4cccc5[nH]cc(c45)C[C@H]3N(CCC)C2)C(=O)N[C@H]2CSSC[C@@H](C(=O)N[C@H](C(N)=O)[C@@H](C)O)NC(=O)[C@H](CC)NC(=O)[C@H](CCCCN)NC(=O)[C@@H](Cc3c[nH]c4ccccc34)NC(=O)[C@H](Cc3ccc(O)cc3)NC2=O)C[C@@H]2c3cccc4[nH]cc(c34)C[C@H]21` [TBR-760 acetate, Dop2-D-Lys(Dop2)-cyclo[Cys-Tyr-D-Trp-Lys-Abu-Cys]-Thr-NH2], for which the “change in visual appearance” value in data set [1] (4 weeks at 60° C.) is given as “from a white powder to a yellow powder”. In addition, the salt form degraded in data set [1] (60° C. for 4 weeks) is given as 9.9%; in data set [1] (60° C. for 8 weeks), “more than 16%”. Further, the “Appearance, T = 2 wk” value in data set [2] (setting [7]) and in data set [2] (setting [8]) was “White” throughout. Besides, the “Appearance, T = 4 wk” value in data set [2] (setting [7]) is on record as “White”; in data set [2] (60° C., open dish), “Pale Orange”. The “Appearance, T = 3 d” value in data set [2] (setting [7]) was “White”; in data set [2] (setting [8]) it was “White”; in data set [2] (60° C., open dish), “White”. Also, in data set [2] (40° C. at 75% RH and 60° C., 2 and 4 weeks, listed as acetate salt), the “stability compared with the other salt forms” value is on record as “least stable of the salts tested”. Moreover, the figures for the “Purity, T = 2 wk” value in data set [2] (setting [9]), in data set [2] (setting [10]) and in data set [2] (setting [11]) were 98.16, 94.52 and 89.7, respectively. For the same molecule, the “Purity, T = 4 wk” value in data set [2] (setting [9]) worked out at 98.09; in data set [2] (setting [10]), 92.37; in data set [2] (setting [11]) it was 82.32. For the same molecule, the “Purity, T = 3 d” value in data set [2] (setting [9]) amounted to 98.52; in data set [2] (setting [10]), 98.4; in data set [2] (setting [11]), 96.66. Besides, the “Purity, Control” value in data set [2] (UPLC peak purity, control, stored at -20° C.) is recorded as 98.35; in data set [5] (UPLC, control in sealed amber vial at -20° C.), 98.35. Further, the “Appearance, Control” value in data set [2] (control, stored at -20° C.) is listed as “White”; in data set [5] (control in sealed amber vial at -20° C.) it was “white”. Further, the “additional degradants in chromatogram versus control” value in data set [2] (two weeks at 60° C., open dish, UPLC, listed as acetate salt) was determined as 17. Also, in data set [3], the “visible appearance after exposure to visible and UV light” value was “from a white salt (control) to a yellow/brown salt”. The compound degraded entry in data set [4] (4 weeks at 60° C. and ambient humidity) was “greater than 5%”. In data set [4] (increasing temperature and humidity (25° C./60% RH, 40° C./75% RH, 60° C.) up to 4 weeks), the thermostability in words entry is listed as “does not maintain stability”. Also, in data set [5] (UPLC, UV 200 watt hours/square meter, clear sealed vial), the “Purity, UV-exposed” value turned out to be 96.16. In data set [5] (UPLC, dark control in UV chamber), the “Purity, Dark Ctrl-UV” value turned out to be 98.42. For the same molecule, in data set [5] (UPLC, dark control in visible light chamber), the “Purity, Dark Crtl-Light” value was 98.34. Moreover, the “Purity, Light-exposed” value in data set [5] (UPLC, visible light 1.2 million lux hours, clear sealed vial) was 92.14. Further, the “Appearance, UV-exposed” value in data set [5] (UV 200 watt hours/square meter, clear sealed vial, listed as TBR-760 acetate salt) is “white to a pale yellow-brown color”. Further, the “Appearance, Dark Ctrl-UV” value in data set [5] (dark control in UV chamber, amber vial wrapped in aluminum foil) is “white”. Also, the “Appearance, Dark Crtl-Light” value in data set [5] (dark control in visible light chamber, amber vial wrapped in aluminum foil) is given as “white”. In data set [5] (dark controls, UPLC), the “degradation under dark conditions” value is “does not degrade”. The “degradation upon exposure to visible or UV light, in words” value in data set [5] (visible and UV light, UPLC) is listed as “degraded”. The “Appearance, Light-exposed” value in data set [5] (visible light 1.2 million lux hours, clear sealed vial, listed as TBR-760 acetate salt) is given as “white to yellow-brown”. In addition, the “TGA further loss of weight” value in data set [6] is listed as “approximately 5%”.
